Source: US11524968B2, “Heterocyclic compound as a protein kinase inhibitor” (HK inno.N Corporation, priority 2017, dated 2022)

Target: JAK1 (Homo sapiens (Human), UniProt P23458)
Assay: Analysis of JAK1 activity inhibition ability (ADP-Glo Kinase Assay)
Assay type: biochemical
Details: JAK1 enzyme, ADP-Glo luminescence, ATP 250 uM, IRS-itide substrate, 30° C. 40 minutes; read-out: IC50
Outline: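 ADP-Glo luminescence read-out of ADP production, with IC50 taken as the concentration halving JAK1 activity relative to control. Enzyme was incubated 40 min at 30 °C with compound, IRS-itide (40 ng/mL) and ATP (250 uM), concentrations as prepared in pH 7.5 Tris-HCl/MgCl2/BSA/DTT buffer.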

Chain of JAK1 (P23458 whole entry): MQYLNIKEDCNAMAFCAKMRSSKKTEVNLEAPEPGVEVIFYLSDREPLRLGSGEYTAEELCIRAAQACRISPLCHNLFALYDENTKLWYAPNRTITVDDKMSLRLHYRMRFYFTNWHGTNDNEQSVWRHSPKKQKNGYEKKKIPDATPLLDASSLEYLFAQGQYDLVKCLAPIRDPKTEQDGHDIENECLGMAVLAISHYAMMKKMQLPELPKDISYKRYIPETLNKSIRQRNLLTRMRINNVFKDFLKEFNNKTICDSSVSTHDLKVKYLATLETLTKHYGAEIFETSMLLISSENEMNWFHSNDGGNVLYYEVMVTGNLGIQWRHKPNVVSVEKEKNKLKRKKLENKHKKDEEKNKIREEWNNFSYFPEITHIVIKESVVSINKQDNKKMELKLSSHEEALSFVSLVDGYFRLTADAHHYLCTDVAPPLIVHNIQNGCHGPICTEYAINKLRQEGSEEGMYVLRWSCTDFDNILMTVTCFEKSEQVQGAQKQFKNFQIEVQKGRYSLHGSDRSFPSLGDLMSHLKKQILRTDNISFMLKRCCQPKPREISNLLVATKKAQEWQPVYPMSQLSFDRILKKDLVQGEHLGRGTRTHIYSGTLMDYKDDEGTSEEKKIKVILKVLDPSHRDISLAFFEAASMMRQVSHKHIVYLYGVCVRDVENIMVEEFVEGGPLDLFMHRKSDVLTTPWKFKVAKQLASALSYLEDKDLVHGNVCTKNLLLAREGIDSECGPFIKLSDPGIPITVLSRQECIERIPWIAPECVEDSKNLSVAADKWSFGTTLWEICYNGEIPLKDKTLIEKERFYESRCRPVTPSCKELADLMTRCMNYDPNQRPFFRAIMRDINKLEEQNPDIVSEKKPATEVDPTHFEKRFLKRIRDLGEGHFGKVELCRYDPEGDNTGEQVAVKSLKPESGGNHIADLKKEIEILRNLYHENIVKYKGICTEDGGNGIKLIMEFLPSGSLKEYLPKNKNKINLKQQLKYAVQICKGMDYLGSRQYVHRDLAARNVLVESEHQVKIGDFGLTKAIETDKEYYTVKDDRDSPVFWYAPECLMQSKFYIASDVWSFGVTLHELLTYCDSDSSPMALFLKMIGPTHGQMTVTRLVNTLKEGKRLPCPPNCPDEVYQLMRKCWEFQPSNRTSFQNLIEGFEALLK

Structure (SMILES)	IC50 [nM]
CCS(=O)(=O)Nc1ccc(-c2cc(NC(=O)C3CC3)nc3[nH]ccc23)c(C)c1 [Example 29, N-(4-(4-(ethylsulfonamido)-2-methylphenyl)-1H-pyrrolo[2,3-b]pyridin-6-yl)cyclopropanecarboxamide]	< 20
N#CC1CCN(C(=O)C(F)(F)c2ccc(-c3cc(NC(=O)C4CC4)nc4[nH]ccc34)cc2)CC1 [Example 575, N-(4-(4-(2-(4-cyanopiperidin-1-yl)-1,1-difluoro-2-oxoethyl)phenyl)-1H-pyrrolo[2,3-b]pyridin-6-yl)cyclopropanecarboxamide]	20 to 200
O=C(Nc1cc(C2=CC3CCC(C2)N3C(=O)CCC(F)(F)F)c2cc[nH]c2n1)C1CC1 (stereo not drawn) [Example 258, N-(4-(8-(4,4,4-trifluorobutanoyl)-8-azabicyclo[3.2.1]oct-2-en-3-yl)-1H-pyrrolo[2,3-b]pyridin-6-yl)cyclopropanecarboxamide]	< 20
O=C(Nc1cc(-c2ccc(NC3CCN(C(=O)Nc4ccc(F)cc4F)CC3)c(F)c2)c2cc[nH]c2n1)C1CC1 [Example 501, 4-((4-(6-(cyclopropanecarboxamido)-1H-pyrrolo[2,3-b]pyridin-4-yl)-2-fluorophenyl)amino)-N-(2,4-difluorophenyl)piperidine-1-carboxamide]	20 to 200
N#CCCCS(=O)(=O)Oc1ccc(-c2cc(NC(=O)C3CC3)nc3[nH]ccc23)cc1 [Example 639, 4-(6-(cyclopropanecarboxamido)-1H-pyrrolo[2,3-b]pyridin-4-yl)phenyl 3-cyanopropane-1-sulfonate]	20 to 200
Cc1cc(NS(=O)(=O)NCC(F)(F)F)ccc1-c1cc(NC(=O)C2CC2)nc2[nH]ccc12 [Example 227, N-(4-(2-methyl-4-((N-(2,2,2-trifluoroethyl)sulfamoyl)amino)phenyl)-1H-pyrrolo[2,3-b]pyridin-6-yl)cyclopropanecarboxamide]	20 to 200
C=CCS(=O)(=O)NC1CC=C(c2cc(NC(=O)C3CC3)nc3[nH]ccc23)CC1 (stereo not drawn) [Example 160, N-(4-(4-(allylsulfonamido)cyclohex-1-en-1-yl)-1H-pyrrolo[2,3-b]pyridin-6-yl)cyclopropanecarboxamide]	< 20
CC(C)N1CCN(C(=O)Cc2ccc(-c3cc(NC(=O)C4CC4)nc4[nH]ccc34)cc2)CC1 [Example 552, N-(4-(4-(2-(4-isopropylpiperazin-1-yl)-2-oxoethyl)phenyl)-1H-pyrrolo[2,3-b]pyridin-6-yl)cyclopropanecarboxamide]	> 200
CCS(=O)(=O)Nc1ccc(-c2cc(NC(=O)C3CC3)nc3[nH]c(C)cc23)cc1 [Example 74, N-(4-(4-(ethylsulfonamido)phenyl)-2-methyl-1H-pyrrolo[2,3-b]pyridin-6-yl)cyclopropanecarboxamide]	> 200
CCCCNC(=O)Nc1ccc(-c2nc(NC(=O)C3CC3)nc3[nH]ccc23)cc1 [Example 439, N-(4-(4-(3-butylureido)phenyl)-7H-pyrrolo[2,3-d]pyrimidin-2-yl)cyclopropanecarboxamide]	20 to 200
O=C(Nc1cc(C2=CCC(NS(=O)(=O)c3ccc(F)c(F)c3)CC2)c2cc[nH]c2n1)C1CC1 (stereo not drawn) [Example 162, N-(4-(4-((3,4-difluorophenyl)sulfonamido)cyclohex-1-en-1-yl)-1H-pyrrolo[2,3-b]pyridin-6-yl)cyclopropanecarboxamide]	< 20
CCN1CCN(C(=O)Cc2ccc(-c3cc(NC(=O)C4CC4)nc4[nH]ccc34)cc2)CC1 [Example 551, N-(4-(4-(2-(4-ethylpiperazin-1-yl)-2-oxoethyl)phenyl)-1H-pyrrolo[2,3-b]pyridin-6-yl)cyclopropanecarboxamide]	> 200
NC(=O)c1ccc(S(=O)(=O)Nc2ccc(-c3cc(NC(=O)C4CC4)nc4[nH]ccc34)cc2)cc1 [Example 17, 4-(N-(4-(6-(cyclopropanecarboxamido)-1H-pyrrolo[2,3-b]pyridin-4-yl)phenyl)sulfamoyl)benzamide]	20 to 200
CC1CN(C(=O)c2ccc([N+](=O)[O-])cc2)CC=C1c1cc(NC(=O)C2CC2)nc2[nH]ccc12 (stereo not drawn) [Example 331, N-(4-(3-methyl-1-(4-nitrobenzoyl)-1,2,3,6-tetrahydropyridin-4-yl)-1H-pyrrolo[2,3-b]pyridin-6-yl)cyclopropanecarboxamide]	20 to 200
N#CCCC(=O)N1CC=C(c2cc(NC(=O)C3CC3)nc3[nH]ccc23)C1 [Example 427, N-(4-(1-(3-cyanopropanoyl)-2,5-dihydro-1H-pyrrol-3-yl)-1H-pyrrolo[2,3-b]pyridin-6-yl)cyclopropanecarboxamide]	> 200
O=C(Nc1cc(C2=CCN(C(=O)Cc3ccc(F)c(F)c3)CC2)c2cc[nH]c2n1)C1CC1 [Example 276, N-(4-(1-(2-(3,4-difluorophenyl)acetyl)-1,2,3,6-tetrahydropyridin-4-yl)-1H-pyrrolo[2,3-b]pyridin-6-yl)cyclopropanecarboxamide]	20 to 200
N#CCC1(CS(=O)(=O)Nc2c(F)cc(-c3cc(NC(=O)C4CC4)nc4[nH]ccc34)cc2F)CC1 [Example 108, N-(4-(4-(((1-(cyanomethyl)cyclopropyl)methyl)sulfonamido)-3,5-difluorophenyl)-1H-pyrrolo[2,3-b]pyridin-6-yl)cyclopropanecarboxamide]	< 20

Structure (SMILES)	IC50 [nM]
N#CCC1(N2CC=C(c3cc(NC(=O)C4CC4)nc4[nH]ccc34)CC2)CN(S(=O)(=O)C(F)(F)F)C1 [Example 619, N-(4-(1-(3-(cyanomethyl)-1-((trifluoromethyl)sulfonyl)azetidin-3-yl)-1,2,3,6-tetrahydropyridin-4-yl)-1H-pyrrolo[2,3-b]pyridin-6-yl)cyclopropanecarboxamide]	< 20
O=C(Nc1nc(-c2ccc(NC(=S)NC3CCCCC3)cc2)c2cc[nH]c2n1)C1CC1 [Example 464, N-(4-(4-(3-cyclohexylthioureido)phenyl)-7H-pyrrolo[2,3-d]pyrimidin-2-yl)cyclopropanecarboxamide]	> 200
CCS(=O)(=O)Nc1ccc(-c2cc(NC(=O)C3CC3)nc3[nH]ccc23)cc1 [Example 4, N-(4-(4-(ethylsulfonamido)phenyl)-1H-pyrrolo[2,3-b]pyridin-6-yl)cyclopropanecarboxamide]	< 20
O=C(Nc1cc(C2CC3CCC(C2)N3S(=O)(=O)C2CC2)c2cc[nH]c2n1)C1CC1 (stereo not drawn) [Example 647, N-(4-(8-(cyclopropylsulfonyl)-8-azabicyclo[3.2.1]octan-3-yl)-1H-pyrrolo[2,3-b]pyridin-6-yl)cyclopropanecarboxamide]	> 200
CCS(=O)(=O)Nc1cc(F)c(-c2cc(NC(=O)C3CC3)nc3[nH]ccc23)cc1F [Example 83, N-(4-(4-(ethylsulfonamido)-2,5-difluorophenyl)-1H-pyrrolo[2,3-b]pyridin-6-yl)cyclopropanecarboxamide]	< 20
CC1CN(C(=O)c2ccc3cc[nH]c3c2)CC=C1c1cc(NC(=O)C2CC2)nc2[nH]ccc12 (stereo not drawn) [Example 327, N-(4-(1-(1H-indole-6-carbonyl)-3-methyl-1,2,3,6-tetrahydropyridin-4-yl)-1H-pyrrolo[2,3-b]pyridin-6-yl)cyclopropanecarboxamide]	20 to 200
CCS(=O)(=O)N1CC=C(c2cc(NC(=O)C3CC3)nc3[nH]ccc23)CC1 [Example 166, N-(4-(1-(ethylsulfonyl)-1,2,3,6-tetrahydropyridin-4-yl)-1H-pyrrolo[2,3-b]pyridin-6-yl)cyclopropanecarboxamide]	20 to 200
CC1CN(C(=O)CC2CCCC2)CC=C1c1cc(NC(=O)C2CC2)nc2[nH]ccc12 (stereo not drawn) [Example 340, N-(4-(1-(2-cyclopentylacetyl)-3-methyl-1,2,3,6-tetrahydropyridin-4-yl)-1H-pyrrolo[2,3-b]pyridin-6-yl)cyclopropanecarboxamide]	20 to 200
O=C(Nc1cc(-c2ccc(NS(=O)(=O)CCCF)cc2)c2cc[nH]c2n1)C1CC1 [Example 3, N-(4-(4-((3-fluoropropyl)sulfonamido)phenyl)-1H-pyrrolo[2,3-b]pyridin-6-yl)cyclopropanecarboxamide]	< 20
CC1CN(C(=O)CCl)CC=C1c1cc(NC(=O)C2CC2)nc2[nH]ccc12 (stereo not drawn) [Example 348, N-(4-(1-(2-chloroacetyl)-3-methyl-1,2,3,6-tetrahydropyridin-4-yl)-1H-pyrrolo[2,3-b]pyridin-6-yl)cyclopropanecarboxamide]	20 to 200
N#CC1(CS(=O)(=O)N2C3CCC2CN(c2cc(NC(=O)C4CC4)nc4[nH]ccc24)C3)CC1 [Example 667, N-(4-(8-(((1-cyanocyclopropyl)methyl)sulfonyl)-3,8-diazabicyclo[3.2.1]octan-3-yl)-1H-pyrrolo[2,3-b]pyridin-6-yl)cyclopropanecarboxamide]	< 20
O=C(Nc1cc(-c2ccc(NS(=O)(=O)C3CCS(=O)(=O)CC3)cc2)c2cc[nH]c2n1)C1CC1 [Example 9, N-(4-(4-((1,1-dioxidotetrahydro-2H-thiopyran)-4-sulfonamido)phenyl)-1H-pyrrolo[2,3-b]pyridin-6-yl)cyclopropanecarboxamide]	< 20
CCS(=O)(=O)Nc1ccc(-c2cc(NC(=O)C3CC3)nc3[nH]cc(C)c23)cc1 [Example 93, N-(4-(4-(ethylsulfonamido)phenyl)-3-methyl-1H-pyrrolo[2,3-b]pyridin-6-yl)cyclopropanecarboxamide]	20 to 200
N#CC1CN(Cc2ccc(-c3cc(NC(=O)C4CC4)nc4[nH]ccc34)cc2)C1 [Example 586, N-(4-(4-((3-cyanoazetidin-1-yl)methyl)phenyl)-1H-pyrrolo[2,3-b]pyridin-6-yl)cyclopropanecarboxamide]	20 to 200
CCNC(=O)Cc1ccc(-c2cc(NC(=O)C3CC3)nc3[nH]ccc23)cc1 [Example 541, N-(4-(4-(2-(ethylamino)-2-oxoethyl)phenyl)-1H-pyrrolo[2,3-b]pyridin-6-yl)cyclopropanecarboxamide]	20 to 200
O=C(Nc1cc(-c2ccc(CC(=O)N3CCC3)cc2)c2cc[nH]c2n1)C1CC1 [Example 546, N-(4-(4-(2-(azetidin-1-yl)-2-oxoethyl)phenyl)-1H-pyrrolo[2,3-b]pyridin-6-yl)cyclopropanecarboxamide]	20 to 200
